The target of test [1] is T1, BRS3 (Homo sapiens, UniProt P32247).
T1 sequence (P32247 1-399): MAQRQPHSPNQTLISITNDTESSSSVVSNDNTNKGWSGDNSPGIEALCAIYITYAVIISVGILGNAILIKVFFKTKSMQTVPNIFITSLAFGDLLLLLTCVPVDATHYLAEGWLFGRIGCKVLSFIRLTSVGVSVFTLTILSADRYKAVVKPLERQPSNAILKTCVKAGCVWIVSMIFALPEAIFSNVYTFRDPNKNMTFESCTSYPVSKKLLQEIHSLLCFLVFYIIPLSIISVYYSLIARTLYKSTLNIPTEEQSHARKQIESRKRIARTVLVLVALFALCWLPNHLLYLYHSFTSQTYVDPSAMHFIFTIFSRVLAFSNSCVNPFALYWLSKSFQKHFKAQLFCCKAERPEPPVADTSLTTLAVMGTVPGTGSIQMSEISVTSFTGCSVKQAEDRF
The note with it: background statement, in words; cited from earlier work.

Test [2] has as its system hippocampal neurones. As to the kind of experiment: Neurotoxicity assay (MTT cell survival) in primary hippocampal cell culture. The following applies: sub-maximal neurotoxicity by Mg-free Locke's solution with glycine and histamine, MTT 24 h after insult. The test is classed as cell-based, rat. On the procedure: Hippocampi were isolated from embryonic Sprague Dawley rats (gestational age 17.5 days; Charles River), incubated with 0.08% (w/v) trypsin, and dissociated in Neurobasal medium containing 10% heat-inactivated fetal calf serum (Skaper et al.(1990) Methods in Neurosciences, Vol. 2 (Conn P. M., ed), pp. 17-33 Academic Press, San Diego). Cells were pelleted by centrifugation (200 g, 5 min) and resuspended in Neurobasal medium containing B27 supplements (with antioxidants), 25 μM glutamate, 1 mM sodium pyruvate, 2 mM L-glutamine, 50 U/ml penicillin, and 50 μg/ml streptomycin. The cell suspension was plated onto poly-D-lysine (10 μg/ml) coated 48-well culture plates (Nunc), at a density of 4.5×10^4 cells per cm^2. Cultures were maintained at 37° C. in a humidified atmosphere of 5% CO2-95% air. […]
Cultures were washed once with Locke's solution (pH 7.0-7.4) (Skaper et al. (1990) supra) with or without 1 mM magnesium chloride (MgCl2). […] Cell survival was quantified 24 h after the insult by a colorimetric reaction with 3-(4,5-dimethylthiazol-2-yl)-2,5-diphenyltetrazolium bromide (MTT) (Mosmann (1983) J. Immunol. Methods 65:55-63; Manthorpe et al. (1986) Dev. Brain Res. 25:191-198; Skaper et al., (1990) supra). Absolute MTT values obtained were normalized and expressed as a percentage of sham-treated sister cultures (defined as 100%).

The subject of test [3] is organotypic hippocampal slice cultures. In words: Oxygen/glucose deprivation model in organotypic hippocampal slice cultures. Format: cell-based.
For test [4], the system named is cerebellar granule cells. As to the kind of experiment: Glutamate-induced excitotoxicity in cerebellar granule cells. Format: cell-based. The text has this:
However, in the cerebellar granule cells [D-Phe^6, βAla^11, Phe^13, Nle^14]Bombesin(6-14) had no effect on glutamate-induced excitotoxicity.

Test [5] addresses T2, endogenous human BRS-3 in NCI-N417 cells (Homo sapiens, UniProt P32247).
T2 construct: Agonist Pharmacology at the Endogenous Human BRS-3 in NCI-N417 Cells; endogenous in cells; host or cells: NCI-N417 cells
T2 sequence (P32247 1-399): T1 sequence (P32247 1-399)
In words: Agonist pharmacology, FLIPR intracellular calcium (Fluo-3AM) in NCI-N417 cells. Format: cell-based. The method, then:
Agonist Pharmacology at the Endogenous Human BRS-3 in NCI-N417 Cells
NCI-N417 cells were seeded into Costar 96 well black walled plates (30,000 cells per well), cultured overnight in RPMI 1640 medium containing 10% foetal calf serum and 1% L-glutamine, and then loaded with the cytoplasmic calcium indicator Fluo-3AM (4 μM) in the presence of 2.5 mM probenecid at 37° C. for 60 min. The cells were then washed 4× with, and finally resuspended in, Tyrode's medium containing 2.5 mM probenecid. Fluorescence was then monitored using a FLIPR (λEX=488 nm, λEM=540 nm) before and after the addition of various ligands (10 pM-10 μM), as described previously (Smart et al (1999). Br. J. Pharmacol. 128:1-4).

In test [6] the target is BB1 receptor (Homo sapiens, UniProt P28336). The note with it: from Smart (1998); cited from earlier work.
Test [7] deals with BB2 receptor (Homo sapiens, UniProt P30550). The note with it: from Smart (1998); cited from earlier work.

Structures are written as SMILES. Non-standard residues stand in square brackets, D forms with d. Residues, ends and D or L forms follow the SMILES beside them. Nle = CCCC[C@H](N)C(=O)O; βAla = NCCC(=O)O

Sequence of BB2 receptor (P30550 whole entry): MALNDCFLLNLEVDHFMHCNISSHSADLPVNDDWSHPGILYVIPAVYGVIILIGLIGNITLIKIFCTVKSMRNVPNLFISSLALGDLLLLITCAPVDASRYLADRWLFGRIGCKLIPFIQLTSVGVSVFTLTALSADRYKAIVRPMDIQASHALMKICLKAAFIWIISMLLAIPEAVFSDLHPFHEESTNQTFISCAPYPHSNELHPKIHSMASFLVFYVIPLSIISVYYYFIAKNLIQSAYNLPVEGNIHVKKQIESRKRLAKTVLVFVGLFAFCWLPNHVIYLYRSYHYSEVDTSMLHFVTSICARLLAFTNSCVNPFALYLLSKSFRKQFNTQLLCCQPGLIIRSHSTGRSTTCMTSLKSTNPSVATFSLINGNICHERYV
Sequence of BB1 receptor (P28336 whole entry): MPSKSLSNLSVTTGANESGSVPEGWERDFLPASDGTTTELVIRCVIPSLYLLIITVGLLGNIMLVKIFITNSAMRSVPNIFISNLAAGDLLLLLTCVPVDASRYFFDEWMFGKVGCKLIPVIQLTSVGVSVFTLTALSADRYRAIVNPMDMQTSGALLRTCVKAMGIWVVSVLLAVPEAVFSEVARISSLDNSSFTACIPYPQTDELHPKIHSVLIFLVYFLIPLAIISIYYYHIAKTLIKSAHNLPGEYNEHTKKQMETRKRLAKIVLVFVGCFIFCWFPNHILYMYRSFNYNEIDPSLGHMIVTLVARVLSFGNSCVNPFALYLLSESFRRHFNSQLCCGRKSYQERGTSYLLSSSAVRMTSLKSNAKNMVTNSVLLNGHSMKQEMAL

Broadly, the EC50 is the concentration giving half of the maximal effect. For the compound `CCCC[C@H](NC(=O)[C@H](Cc1ccccc1)NC(=O)[C@H](Cc1c[nH]cn1)NC(=O)CCNC(=O)[C@@H](NC(=O)[C@H](C)NC(=O)[C@H](Cc1c[nH]c2ccccc12)NC(=O)[C@H](CCC(N)=O)NC(=O)[C@H](N)Cc1ccccc1)C(C)C)C(N)=O` [[D-Phe^6, βAla^11, Phe^13, Nle^14]Bombesin(6-14)] (H-[dF]QWAV[βAla]HF[Nle]-NH2; N-terminus and C-terminus assumed), the “affinity at BRS3” value in test [1] is reported as “low nM affinity”. For the same compound, the “pEC50 for inhibition of damage” value in test [2] is listed as 7.3±0.1. Also, the neuroprotection result in test [3] is recorded as “neuroprotective”. Besides, the “effect on glutamate-induced excitotoxicity” value in test [4] is on record as “no effect”. The concentration giving a half-maximal response (EC50) in test [5] was 13.2 nM. Besides, the Efficacy entry in test [5] (calcium mobilisation, FLIPR, NCI-N417 cells, efficacy in words) was “full”.
With `CC(C)c1cccc(C(C)C)c1NC(=O)N[C@@](C)(Cc1c[nH]c2ccccc12)C(=O)NCC1(c2ccccn2)CCCCC1` [PD 165929], in test [6], the “affinity at the BB1 receptor” value was 7.6 nM. Further, the “activity at the BB2 receptor” value in test [7] is “inactive”.
